Assay results taken from patent US20020026053A1, “Novel 3-(substituted) -2- indolinones compounds and use thereof as inhibitors of protein kinase activity” (priority 1997, published 2002).

Target: T1, Met receptor (EGFR/Met chimeric cells, EMR) (Homo sapiens, UniProt P08581)
T1 construct: expressed in transfected cells; the other entry of the earlier key: EGFR (P00533, Epidermal growth factor receptor)
Assay: Met Autophosphorylation Assay
Format: biochemical
Method in brief: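 Transiently transfected EGFR/Met chimeric (EMR) cells were lysed in HNTG with 1 mM PMSF. Met was captured on plates coated with goat anti-rabbit IgG, then rabbit anti-Met (C-28), using 90 μg lysate/100 μl for 60 min at room temperature. Phosphotyrosine was read by ELISA.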

T1 sequence (P08581 with tags, fused parts or gaps): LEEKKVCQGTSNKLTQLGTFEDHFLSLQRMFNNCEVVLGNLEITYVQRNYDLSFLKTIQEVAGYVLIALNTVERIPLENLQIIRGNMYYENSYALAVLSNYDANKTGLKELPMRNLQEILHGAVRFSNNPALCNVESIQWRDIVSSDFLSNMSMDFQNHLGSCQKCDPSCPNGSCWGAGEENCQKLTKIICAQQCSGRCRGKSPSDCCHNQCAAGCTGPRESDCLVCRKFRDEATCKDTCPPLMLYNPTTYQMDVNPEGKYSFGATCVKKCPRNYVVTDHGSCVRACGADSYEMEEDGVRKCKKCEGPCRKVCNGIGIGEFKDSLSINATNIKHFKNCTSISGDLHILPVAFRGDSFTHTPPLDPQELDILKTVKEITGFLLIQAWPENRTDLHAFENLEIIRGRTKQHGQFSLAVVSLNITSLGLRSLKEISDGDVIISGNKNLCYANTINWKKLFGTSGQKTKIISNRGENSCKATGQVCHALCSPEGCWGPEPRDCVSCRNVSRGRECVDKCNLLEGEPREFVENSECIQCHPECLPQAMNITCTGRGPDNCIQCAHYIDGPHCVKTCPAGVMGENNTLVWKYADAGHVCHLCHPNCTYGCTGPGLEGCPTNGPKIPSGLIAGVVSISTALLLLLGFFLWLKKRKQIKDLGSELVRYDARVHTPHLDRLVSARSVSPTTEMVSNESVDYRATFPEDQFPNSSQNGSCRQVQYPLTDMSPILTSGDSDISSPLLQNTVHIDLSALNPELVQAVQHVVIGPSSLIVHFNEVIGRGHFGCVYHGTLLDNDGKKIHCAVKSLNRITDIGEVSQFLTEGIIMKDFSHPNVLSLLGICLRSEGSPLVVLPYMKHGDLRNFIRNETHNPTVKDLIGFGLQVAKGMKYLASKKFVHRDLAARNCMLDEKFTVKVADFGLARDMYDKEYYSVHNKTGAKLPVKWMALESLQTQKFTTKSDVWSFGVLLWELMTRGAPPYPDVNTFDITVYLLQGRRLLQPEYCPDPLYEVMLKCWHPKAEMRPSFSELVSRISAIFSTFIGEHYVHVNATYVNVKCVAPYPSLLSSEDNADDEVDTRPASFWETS

Compound	Met Kinase % Inhibition (P.130) [%]
Cc1c(Br)cc(Br)c2c1C(=Cc1ccc(O)cc1)C(=O)N2 [10719/H07]	22.9
Cc1c(Br)cc(Br)c2c1C(=Cc1ccc(N(C)C)cc1)C(=O)N2 [10719/H08]	20.0
Cc1c(Br)cc(Br)c2c1C(=Cc1ccc(F)cc1Cl)C(=O)N2 [10719/H09]	5.8
Cc1c(Br)cc(Br)c2c1C(=Cc1cccc([N+](=O)[O-])c1)C(=O)N2 [10719/H10]	−5.7
Cc1c(Br)cc(Br)c2c1C(=Cc1ccc(F)cc1C(F)(F)F)C(=O)N2 [10719/H11]	50.5
Cc1c(Br)cc(Br)c2c1C(=Cc1c(F)cc(F)cc1F)C(=O)N2 [10720/H02]	64.1
COc1cc(O)ccc1C=C1C(=O)Nc2c(Br)cc(Br)c(C)c21 [10720/H03]	40.0
N#Cc1ccccc1C=C1C(=O)Nc2ccc(CCCl)cc21 [10735/G07]	37.1
O=C1Nc2ccc(CCCl)cc2C1=Cc1c(F)cccc1F [10735/G08]	29.9
O=C1Nc2ccc(CCCl)cc2C1=Cc1cccc2ccccc12 [10735/G09]	16.8
O=C1Nc2ccc(CCCl)cc2C1=Cc1ccc(Cl)cc1Cl [10735/G10]	37.8
O=C1Nc2ccc(CCCl)cc2C1=Cc1ccc(-c2ccccc2)cc1 [10735/G11]	23.0
Cc1ccccc1C=C1C(=O)Nc2c(Br)cc(Br)c(C)c21 [10735/H02]	29.2
Cc1c(Br)cc(Br)c2c1C(=Cc1ccc(F)c(F)c1)C(=O)N2 [10735/H03]	40.8
Cc1c(Br)cc(Br)c2c1C(=Cc1cc(F)cc(F)c1)C(=O)N2 [10735/H04]	42.9
Cc1c(Br)cc(Br)c2c1C(=Cc1cccc(C(F)(F)F)c1)C(=O)N2 [10735/H05]	49.8
Cc1c(Br)cc(Br)c2c1C(=Cc1cc(C(F)(F)F)cc(C(F)(F)F)c1)C(=O)N2 [10735/H06]	57.2
Cc1c(Br)cc(Br)c2c1C(=Cc1ccccc1C#N)C(=O)N2 [10735/H07]	48.5
Cc1c(Br)cc(Br)c2c1C(=Cc1c(F)cccc1F)C(=O)N2 [10735/H08]	59.2
Cc1c(Br)cc(Br)c2c1C(=Cc1cccc3ccccc13)C(=O)N2 [10735/H09]	22.4
Cc1c(Br)cc(Br)c2c1C(=Cc1ccc(Cl)cc1Cl)C(=O)N2 [10735/H10]	29.9
Cc1c(Br)cc(Br)c2c1C(=Cc1ccc(-c3ccccc3)cc1)C(=O)N2 [10735/H11]	22.8
O=C1Nc2c(Br)cc(Br)cc2C1=Cc1ccc(Cl)cc1 [10736/A02]	72.5
O=C1Nc2c(Br)cc(Br)cc2C1=Cc1ccccc1C(F)(F)F [10736/A03]	42.6
Cc1cccc(C=C2C(=O)Nc3c(Br)cc(Br)cc32)c1 [10736/A04]	75.2
Cc1ccc(C=C2C(=O)Nc3c(Br)cc(Br)cc32)cc1 [10736/A05]	73.6
O=C1Nc2c(Br)cc(Br)cc2C1=Cc1cccc(Cl)c1 [10736/A06]	69.7

Compound	Met Kinase % Inhibition (P.130) [%]
O=C1Nc2c(Br)cc(Br)cc2C1=Cc1cccc(F)c1 [10736/A07]	55.2
O=C1Nc2c(Br)cc(Br)cc2C1=Cc1ccccc1F [10736/A08]	58.7
CCc1ccc(C=C2C(=O)Nc3c(Br)cc(Br)cc32)cc1 [10736/A09]	69.7
COc1cccc(C=C2C(=O)Nc3c(Br)cc(Br)cc32)c1 [10736/A10]	65.0
O=C1Nc2c(Br)cc(Br)cc2C1=Cc1ccccc1Cl [10736/A11]	46.1
O=C1Nc2ccc(I)cc2C1=Cc1ccc(Cl)cc1 [10736/B02]	73.6
O=C1Nc2ccc(I)cc2C1=Cc1ccccc1C(F)(F)F [10736/B03]	65.5
Cc1cccc(C=C2C(=O)Nc3ccc(I)cc32)c1 [10736/B04]	65.5
Cc1ccc(C=C2C(=O)Nc3ccc(I)cc32)cc1 [10736/B05]	63.9
O=C1Nc2ccc(I)cc2C1=Cc1cccc(Cl)c1 [10736/B06]	60.6
O=C1Nc2ccc(I)cc2C1=Cc1cccc(F)c1 [10736/B07]	87.2
O=C1Nc2ccc(I)cc2C1=Cc1ccccc1F [10736/B08]	59.3
CCc1ccc(C=C2C(=O)Nc3ccc(I)cc32)cc1 [10736/B09]	55.2
COc1cccc(C=C2C(=O)Nc3ccc(I)cc32)c1 [10736/B10]	52.5
O=C1Nc2ccc(I)cc2C1=Cc1ccccc1Cl [10736/B11]	47.0
Cc1c(Br)ccc2c1C(=Cc1ccc(Cl)cc1)C(=O)N2 [10736/C02]	50.1
Cc1c(Br)ccc2c1C(=Cc1ccccc1C(F)(F)F)C(=O)N2 [10736/C03]	9.9
Cc1cccc(C=C2C(=O)Nc3ccc(Br)c(C)c32)c1 [10736/C04]	49.0
Cc1ccc(C=C2C(=O)Nc3ccc(Br)c(C)c32)cc1 [10736/C05]	44.6
Cc1c(Br)ccc2c1C(=Cc1cccc(Cl)c1)C(=O)N2 [10736/C06]	45.2
Cc1c(Br)ccc2c1C(=Cc1cccc(F)c1)C(=O)N2 [10736/C07]	55.6
Cc1c(Br)ccc2c1C(=Cc1ccccc1F)C(=O)N2 [10736/C08]	49.2
CCc1ccc(C=C2C(=O)Nc3ccc(Br)c(C)c32)cc1 [10736/C09]	27.9
COc1cccc(C=C2C(=O)Nc3ccc(Br)c(C)c32)c1 [10736/C10]	18.7
Cc1c(Br)ccc2c1C(=Cc1ccccc1Cl)C(=O)N2 [10736/C11]	11.0
CNS(=O)(=O)c1ccc2c(c1)C(=Cc1ccc(Cl)cc1)C(=O)N2 [10736/D02]	44.4
CNS(=O)(=O)c1ccc2c(c1)C(=Cc1ccccc1C(F)(F)F)C(=O)N2 [10736/D03]	14.7

Compound	Met Kinase % Inhibition (P.130) [%]
CNS(=O)(=O)c1ccc2c(c1)C(=Cc1cccc(C)c1)C(=O)N2 [10736/D04]	8.1
CNS(=O)(=O)c1ccc2c(c1)C(=Cc1ccc(C)cc1)C(=O)N2 [10736/D05]	3.9
CNS(=O)(=O)c1ccc2c(c1)C(=Cc1cccc(Cl)c1)C(=O)N2 [10736/D06]	14.7
CNS(=O)(=O)c1ccc2c(c1)C(=Cc1cccc(F)c1)C(=O)N2 [10736/D07]	15.4
CNS(=O)(=O)c1ccc2c(c1)C(=Cc1ccccc1F)C(=O)N2 [10736/D08]	13.0
CCc1ccc(C=C2C(=O)Nc3ccc(S(=O)(=O)NC)cc32)cc1 [10736/D09]	14.1
CNS(=O)(=O)c1ccc2c(c1)C(=Cc1cccc(OC)c1)C(=O)N2 [10736/D10]	16.9
CNS(=O)(=O)c1ccc2c(c1)C(=Cc1ccccc1Cl)C(=O)N2 [10736/D11]	22.6
O=C1Nc2ccc(S(=O)(=O)Nc3ccc(C(F)(F)F)cc3)cc2C1=Cc1ccc(Cl)cc1 [10736/E02]	81.5
O=C1Nc2ccc(S(=O)(=O)Nc3ccc(C(F)(F)F)cc3)cc2C1=Cc1ccccc1C(F)(F)F [10736/E03]	33.0
Cc1cccc(C=C2C(=O)Nc3ccc(S(=O)(=O)Nc4ccc(C(F)(F)F)cc4)cc32)c1 [10736/E04]	61.8
Cc1ccc(C=C2C(=O)Nc3ccc(S(=O)(=O)Nc4ccc(C(F)(F)F)cc4)cc32)cc1 [10736/E05]	57.6
O=C1Nc2ccc(S(=O)(=O)Nc3ccc(C(F)(F)F)cc3)cc2C1=Cc1cccc(Cl)c1 [10736/E06]	66.6
O=C1Nc2ccc(S(=O)(=O)Nc3ccc(C(F)(F)F)cc3)cc2C1=Cc1cccc(F)c1 [10736/E07]	45.9
O=C1Nc2ccc(S(=O)(=O)Nc3ccc(C(F)(F)F)cc3)cc2C1=Cc1ccccc1F [10736/E08]	52.3
CCc1ccc(C=C2C(=O)Nc3ccc(S(=O)(=O)Nc4ccc(C(F)(F)F)cc4)cc32)cc1 [10736/E09]	53.8
COc1cccc(C=C2C(=O)Nc3ccc(S(=O)(=O)Nc4ccc(C(F)(F)F)cc4)cc32)c1 [10736/E10]	37.8
O=C1Nc2ccc(S(=O)(=O)Nc3ccc(C(F)(F)F)cc3)cc2C1=Cc1ccccc1Cl [10736/E11]	64.4
O=C1Nc2ccc(S(=O)(=O)N3CCOCC3)cc2C1=Cc1ccc(Cl)cc1 [10736/F02]	69.4
O=C1Nc2ccc(S(=O)(=O)N3CCOCC3)cc2C1=Cc1ccccc1C(F)(F)F [10736/F03]	23.9
Cc1cccc(C=C2C(=O)Nc3ccc(S(=O)(=O)N4CCOCC4)cc32)c1 [10736/F04]	45.2
Cc1ccc(C=C2C(=O)Nc3ccc(S(=O)(=O)N4CCOCC4)cc32)cc1 [10736/F05]	19.8
O=C1Nc2ccc(S(=O)(=O)N3CCOCC3)cc2C1=Cc1cccc(Cl)c1 [10736/F06]	49.0
O=C1Nc2ccc(S(=O)(=O)N3CCOCC3)cc2C1=Cc1cccc(F)c1 [10736/F07]	10.7
O=C1Nc2ccc(S(=O)(=O)N3CCOCC3)cc2C1=Cc1ccccc1F [10736/F08]	−0.2
CCc1ccc(C=C2C(=O)Nc3ccc(S(=O)(=O)N4CCOCC4)cc32)cc1 [10736/F09]	40.2
